From PMC8482815, “Targeting Host Glycolysis as a Strategy for Antimalarial Development” (Frontiers in Cellular and Infection Microbiology, 2021)
Entries after “also recorded” stand apart in the source; their conditions may differ. Like-named read-outs stand apart in the source and are kept apart here.

Key:
P. falciparum strain 3D7 = experiment: Plasmodium falciparum growth inhibition assay (Picogreen DNA content, three-day incubation); format: cell-based; conditions: for S.I. + pyruvate (Supplemental Table 4): MetHb EC50 / parasite EC50, with pyruvate; for S.I. - pyruvate (Supplemental Table 4): MetHb EC50 / parasite EC50, without pyruvate; for EC50: Plasmodium falciparum; for S.I. Fold Change (Supplemental Table 4): change in S.I. with versus without pyruvate; for T.I. Fold change: change in T.I. with versus without 1mM pyruvate; for T.I. + pyruvate / T.I. - pyruvate: therapeutic index = [EC50 for MetHb formation]/[EC50 for parasite growth inhibition]; for T.I. + pyruvate: with 1mM pyruvate; for T.I. - pyruvate: without pyruvate
Description: (§1) Banked blood (Saint Louis Children’s Hospital) and fresh blood [healthy donors] was washed and stored at 50% hematocrit at 4°C up to 1 month past the clinical expiration date and collection date, respectively. Parasite strains provided by the Malaria Research and Reference Reagent Resource Center (MR4) as follows: 3D7 (MRA-102); K1 (MRA-159); D10 (MRA-201); and IPC-5202 (MRA-1240). Unless indicated, erythrocytes were cultured as previously described at 2% hematocrit in complete media (incomplete media supplemented with 27mM sodium bicarbonate, 11mM glucose, 5mM HEPES, 1mM sodium pyruvate, 0.37mM hypoxanthine, 0.01mM thymidine, 10µg/mL gentamicin, and 0.5% Albumax I (Thermo-Fisher) under 5% O2/5% CO2/90% N2 atmosphere at 37°C ([Guggisberg et al., 2014]).
(§2) Asynchronous cultures diluted to 1% parasitemia in 100μL wells were subjected to drug dilutions, solvent controls, and untreated uninfected erythrocyte controls in technical duplicates. Following a three-day incubation, DNA content was quantified using Picogreen (Life Technologies), as previously described ([Corbett et al., 2004]). Half-maximal effective concentrations (EC50) were determined from nonlinear regression of three biological replicates (GraphPad Prism).

human erythrocytes = experiment: Detection and quantification of MetHb formation in cultured erythrocytes; format: cell-based; conditions: Homo sapiens, Erythrocyte
Description: as §1
MetHb was detected by measuring absorbance in the 630-640nm range, which is specific from other hemoglobin subforms (oxyhemoglobin, deoxyhemoglobin, and carboxyhemoglobin). Supernatants were removed and erythrocyte pellets were fully lysed and diluted, as described above. The absorption peak for oxyhemoglobin (575nm) and MetHb (630nm) were measured and the EC50 of MetHb formation was determined using non-linear regression analysis (GraphPad Prism).

P. berghei ANKA = format: in vivo, Swiss Webster mice
Description: (§3) Groups of five female Swiss-Webster mice were injected intraperitoneally (i.p.) with 10^3 luciferase-expressing P. berghei ANKA parasites ([Franke-Fayard et al., 2008]). Forty-eight hours post infection, mice were injected i.p. daily for five days with either 200µL of 2% methylcellulose/0.5% Tween80, 40mg/kg chloroquine, 100mg/kg HEX, 30mg/kg POM-HEX, or 5mg/kg POM-SF. Enolase inhibitors dosing were selected as approximately 3-fold lower than the maximum acutely tolerated dose for each compound by i.p. injection. Day 7 post-infection, mice were injected with 150mg/kg D-luciferin potassium salt in PBS (GoldBio) and imaged on an IVIS 100 and parasite burden assessed (Xenogen LivingImage).
The glucose mimetic 2-DG and enolase inhibitors POM-HEX, and HEX were evaluated in the P. berghei mouse model of cerebral malarial, as previously described ([Wang et al., 2018]). Briefly, in addition to groups of mice (n = 5) dosed as described above for POM-HEX and HEX, 2-DG was administered to an additional group (n = 5) at 200mg/kg twice daily and all were monitored for survival, parasitemia (blood smear Giemsa), and clinical signs of cerebral malaria (paralysis, deviation of the head, ataxia, convulsions, and coma) over 15 days.

[1] = Pharmacokinetics of HEX in non-human primates (plasma, NMR 31P-1H HSQC); format: in vivo, cynomolgus monkeys (Macaca fascicularis)
Description: (§4) Adult male cynomolgus monkeys (Macaca fascicularis) with weight of 2.5-3.5 kg were used for PK studies (n = 1). To prepare HEX for injection, a stock solution of 150 mg/mL HEX in water with final pH of 7.2-7.4 was prepared. Just prior to injection, this stock was diluted with saline to desired concentration and filtered with 0.22 µm filter. A dose of 100 mg/Kg of HEX was injected subcutaneously in an overnight fasted monkey. Blood samples were collected at the following time points: before injection, 1 hr, 2 hrs, 4 hrs (when food was also given to a monkey), 8 hrs, and 24 hrs after injection. Also, a dose of 400 mg/Kg of HEX was administrated through oral gavage. To compare the PK studies in non-human primates with rodents, a 400 mg/kg dose of HEX was also injected subcutaneously in female mice (n = 1), and blood was collected before, 1 hr, and 2 hrs after injection. HEX concentrations in plasma were measured by using nuclear magnetic resonance (NMR) spectroscopy. Two hundred microliters of plasma were extracted with four hundred microliters of −20°C precooled methanol and incubated in −20°C for 45 minutes followed by spinning down in 4°C at 17,000 × g for 30 min to separate supernatant. The supernatant then was concentrated by speedvac for 4 hours and dissolved in 470 μL D2O (Sigma Aldrich,151882) and 30 μL D2O with 3%TPS as an internal standard (Sigma Aldrich, 450510) for NMR studies. NMR experiments were performed on Bruker Avance III HD 500 MHz spectrometer equipped with cryoprobe and Bruker 300 MHz with broad band observe probe. […] NMR spectra were analyzed using 3.1 version of TopSpin. HEX was quantified in the sample with high concentration of the drug (100 mpk, 1 hr after SC injection) by comparing integrals of HEX and TSP (reference) in 1H spectra. […]

[2] = Pharmacokinetics of HEX in mice (plasma, NMR 31P-1H HSQC); format: in vivo
Description: as §4

[3] = set-up: method as in Lin et al., 2020; conditions: cynomolgus monkeys, 100 mpk SC; replotted, ref Lin et al., 2020; cited from earlier work
[4] = tested on: P. falciparum K1 (chloroquine and sulfadoxine-pyrimethamine resistant); experiment: Plasmodium falciparum growth inhibition assay, drug-resistant line K1; format: cell-based; conditions: K1, read-out: EC50 (nM), P. falciparum K1
Description: (§5) Banked blood (Saint Louis Children’s Hospital) and fresh blood [healthy donors] was washed and stored at 50% hematocrit at 4°C up to 1 month past the clinical expiration date and collection date, respectively. Parasite strains provided by the Malaria Research and Reference Reagent Resource Center (MR4) as follows: 3D7 (MRA-102); K1 (MRA-159); D10 (MRA-201); and IPC-5202 (MRA-1240). […]
as §2, with “Prism). […]” for “Prism).”
(§6) Supplemental Table 5. […] Half-maximal inhibitor concentrations (EC50s) were determined for drug resistant malaria parasites and compared to the sensitive 3D7 strain. The respective EC50s are calculated from each of the independent biological replicates using a non-linear regression of the log of the inhibitor concentration with data from each technical replicate normalized to maximal and minimal growth using the software package GraphPad Prism. […]
(§7) means ± s.e.m calculated from three biological replicates.

[5] = tested on: P. falciparum D10 (mefloquine resistant); experiment: Plasmodium falciparum growth inhibition assay, drug-resistant line D10; format: cell-based; conditions: D10, read-out: EC50 (nM), P. falciparum D10
Description: as §5
as §2, with “Prism). […]” for “Prism).”
as §6, §7

[6] = tested on: P. falciparum IPC-5202 (chloroquine and artemisinin resistant); experiment: Plasmodium falciparum growth inhibition assay, drug-resistant line IPC-5202; format: cell-based; conditions: read-out: EC50 (nM), P. falciparum IPC-5202
Description: as §5
as §2, with “Prism). […]” for “Prism).”
as §6, §7

[7] = tested on: luciferase-expressing P. berghei ANKA parasites; experiment: In vivo efficacy against blood stage parasite burden (luciferase imaging); set-up: species or system Swiss-Webster mice; conditions: i.p. daily for five days; 30mg/kg POM-HEX, 5mg/kg POM-SF
Description: as §3

[8] = set-up: method as in Lin et al., 2020; conditions: ref Lin et al., 2020; cited from earlier work

Compound: O=C1C(P(=O)(O)O)CCCN1O (stereo not drawn) [HEX]
- S.I. + pyruvate (Supplemental Table 4) (P. falciparum strain 3D7): 27.8
- S.I. - pyruvate (Supplemental Table 4) (P. falciparum strain 3D7): 26.3
- EC50 (P. falciparum strain 3D7; 3D7, read-out: Parasite EC50 - pyruvate): 19 ± 1 µM
- EC50 (P. falciparum strain 3D7; 3D7, read-out: half maximal effective concentrations (EC50s), parasite growth): > 15 µM
- S.I. Fold Change (Supplemental Table 4) (P. falciparum strain 3D7): 1.1
- T.I. Fold change (P. falciparum strain 3D7): 1.1
- selectivity for antiparasitic activity over erythrocyte toxicity (in words) (P. falciparum strain 3D7; parasite growth versus MetHb formation): notably selective
- T.I. + pyruvate (P. falciparum strain 3D7): 27.8
- T.I. - pyruvate (P. falciparum strain 3D7): 26.3
- EC50 (human erythrocytes; read-out: MetHb EC50 + pyruvate (Supplemental Table 4)): > 500 µM
- EC50 (human erythrocytes; read-out: MetHb EC50 - pyruvate): > 500 µM
- EC50 (human erythrocytes; read-out: MetHb EC50 - pyruvate (Supplemental Table 4)): > 500 µM
- survival (P. berghei ANKA; HEX 100 mg/kg daily from day 2, Mantel-Cox): 14 days
- parasitemia (P. berghei ANKA; d4, blood smear Giemsa, treated from day 2, HEX 100 mg/kg, 2DG 200 mg/kg, control 7.8±3.3%): 3.5±1.3%
- clinical scores (signs of cerebral malaria) (P. berghei ANKA; d6, HEX 100 mg/kg, vehicle 15.0±7.3): 3.8±2.0
- mice alive on day 15 (P. berghei ANKA; n=5, HEX 100 mg/kg, sacrificed due to high parasitemia and elevated clinical score): two mice remained alive
- half-life ([1]; monkey, 100 mg/kg sub-cutaneous, serum/plasma, 100 mg/kg): ~ 1 hr
- oral bioavailability (in words) ([1]; monkey, 400 mpk by oral gavage): orally bioavailable
- time serum concentrations remain above the in vitro EC50 concentrations against Plasmodium ([1]; non-human primates, 100mg/kg sub-cutaneous): at least four hours
- HEX concentration in plasma, 2 hr time point ([2]; 400 mg/kg dose SC, detection limit ~1 µM): undetectable
- serum half-life ([2]; 400mg/kg sub-cutaneous): minutes
- concentration at 1 hr ([2]; female, mouse, plasma, 400 mg/kg dose SC, read-out: HEX concentration in plasma, 1hr after injection): ~170 µM
- plasma concentrations at 1hr [3]: > 500 µM

Compound: CC(C)(C)C(=O)OCOP(=O)(OCOC(=O)C(C)(C)C)C1CCCN(O)C1=O (stereo not drawn) [POM-HEX]
- S.I. + pyruvate (Supplemental Table 4) (P. falciparum strain 3D7): 1.5
- S.I. - pyruvate (Supplemental Table 4) (P. falciparum strain 3D7): 0.4
- EC50 (P. falciparum strain 3D7; 3D7, 72 h, P. falciparum growth, presence of 1mM pyruvate, mean ± s.e.m., read-out: Parasite EC50 + pyruvate): 0.91 ± 0.15 µM
- EC50 (P. falciparum strain 3D7; 3D7, P. falciparum growth, absence of 1mM pyruvate, mean ± s.e.m., 500 = highest concentration tested, EC50 not resolved, read-out: Parasite EC50 - pyruvate): 2.9 ± 0.64 µM
- S.I. Fold Change (Supplemental Table 4) (P. falciparum strain 3D7): 3.7
- T.I. Fold change (P. falciparum strain 3D7): 3.7
- T.I. + pyruvate (P. falciparum strain 3D7): 1.5
- T.I. - pyruvate (P. falciparum strain 3D7): 0.4
- EC50 [4]: 1110 ± 530 nM
- EC50 [5]: 1430 ± 540 nM
- EC50 [6]: 966 ± 442 nM
- EC50 (human erythrocytes; MetHb formation, absence of 1mM pyruvate, mean ± s.e.m., 500 = highest concentration tested, EC50 not resolved, read-out: MetHb EC50 - pyruvate): 1.2 ± 0.19 µM
- EC50 (human erythrocytes; MetHb formation, presence of 1mM pyruvate, mean ± s.e.m., 500 = highest concentration tested, EC50 not resolved, read-out: MetHb EC50 + pyruvate): 1.4 ± 0.11 µM
- effect on clinical score, overall survival, cerebral malaria (in words) (P. berghei ANKA; 2DG 200 mg/kg, POM-HEX 30 mg/kg): no more effective than 2-DG; also recorded: does not prevent cerebral malaria
- effect on parasite burden (in words) [7]: does not forestall a lethal parasite burden
- conversion in mouse plasma (in words) [8]: rapidly converted to Hemi-POM-HEX
